Results: US7445764B1, “Carrier-drug conjugate” (priority 1999, dated 2008)

Key:
[1] = system: RENCA, renal cell carcinoma; settings: female, Balb/c, mouse, in vivo
Source text: (§1) Animals: Balb/c mice, female; tumor: RENCA, renal cell carcinoma; therapy: day (d) 10, 14, 18, 21 intravenous (i.v.); end of trial: d 25.
(§2) The dose is relative to the quantity of doxorubicin present.

[2] = system: RENCA, renal cell carcinoma; test: RENCA (renal cell carcinoma) model, antitumoral action at approximately equitoxic dose; settings: RENCA in Balb/c mice
Source text: as §1, §2

[3] = molecular target: HSA-Cys^34-2 (conjugate of DTT-treated human serum albumin with doxorubicin-maleinimide-peptide derivative 2) (UniProt P02768)
HSA-Cys^34-2 (conjugate of DTT-treated human serum albumin with doxorubicin-maleinimide-peptide derivative 2), sequence (P02768 whole entry, looked up, tested part not stated): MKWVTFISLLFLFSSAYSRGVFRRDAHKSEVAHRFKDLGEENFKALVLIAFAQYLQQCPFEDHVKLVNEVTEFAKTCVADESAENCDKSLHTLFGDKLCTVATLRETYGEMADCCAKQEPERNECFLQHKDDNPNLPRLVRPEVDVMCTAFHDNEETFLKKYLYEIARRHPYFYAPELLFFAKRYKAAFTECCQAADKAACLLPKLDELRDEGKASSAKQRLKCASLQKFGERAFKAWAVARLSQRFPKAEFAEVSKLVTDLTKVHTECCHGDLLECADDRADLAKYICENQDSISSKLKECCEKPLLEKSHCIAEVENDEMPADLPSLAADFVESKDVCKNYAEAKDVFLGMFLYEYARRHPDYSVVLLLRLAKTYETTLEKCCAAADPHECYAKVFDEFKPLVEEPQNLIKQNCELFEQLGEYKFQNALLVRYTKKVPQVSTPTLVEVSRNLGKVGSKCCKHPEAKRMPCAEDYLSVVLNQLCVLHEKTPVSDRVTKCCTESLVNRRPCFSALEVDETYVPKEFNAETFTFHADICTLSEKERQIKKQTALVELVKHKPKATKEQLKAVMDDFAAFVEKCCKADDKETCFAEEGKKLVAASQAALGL

Compound: COc1cccc2c1C(=O)c1c(O)c3c(c(O)c1C2=O)C[C@@](O)(C(=O)CO)C[C@@H]3O[C@H]1C[C@H](N)[C@H](O)[C@H](C)O1 [Doxorubicin, doxorubicin]
- Mortality (d) [1]: 1
- Visible renal tumors ([2]; FIG. 3A): plainly visible renal tumors were observed in all animals
- Number of pulmonary metastases, average ([2]; FIG. 3B): ~100 metastases per mouse
- Complete remission ([2]; i.v. d 10, 14, 18, 21, end of trial d 25, approximately equitoxic doses): no complete remissions

Compound: matrix metalloprotease MMP 9 (trypsine/aprotinine-activated, from Calbiochem, Germany)
- liberation of DOXO-Gln-Gly-Ala-Ile due to cleavage with MMP 9 (HPLC gel chromatography, t=0 against t=30 min) [3]: The liberation of DOXO-Gln-Gly-Ala-Ile due to cleavage with MMP 9 was confirmed by HPLC gel chromatography
